Source: patent publication US20110306650A1 (Chiesi Farmaceutici S.p.A., priority 2010, published 2011)

Test: compatibility with other active ingredients in pharmaceutical formulations
Type: physicochemical
Conditions: especially with formoterol; relative to glycopyrronium bromide

compatibility with other active ingredients: better compatibility
Structure (SMILES): C[N+]1(C)CCC(OC(=O)C(O)(c2ccccc2)C2CCCC2)C1.[Cl-] (stereo not shown) [glycopyrronium chloride]
